Assay results reported in patent publication US20060019885A1, “Modified bryodin 1 with reduced immunogenicity” (priority 2002, published 2006).

Test system: peripheral blood mononuclear cells (PBMCs), containing antigen presenting cells (APCs) and T-cells
Test: naïve human T-cell proliferation assay (3H-thymidine incorporation, stimulation index)
Format: cell-based
Conditions: for predicted ranking of the most immunodominant regions: from numbers of responding naïve donors and crystallographic B-factor analysis; for number of donor samples reactive / percent of donor samples reactive: of 21 naïve donor PBMC samples, positive response SI>2
Text: This approach has proven to be a particularly effective method and is disclosed herein as an embodiment of the invention. The method can be applied to test part of the sequence, for example a sub-set of bryodin 1 peptides such as all or some of those listed in FIG. 1; or the method may be applied to test entire sequence. In the present studies, the method has involved the testing of overlapping bryodin 1 derived peptide sequences in a scheme so as to scan and test the entire bryodin 1 sequence (including peptides representing the N-terminal pro-pepeptide). The synthetic peptides are tested for their ability to evoke a proliferative response in human T-cell cultured in vitro. Where this type of approach is conducted using naïve human T-cells taken from healthy donors, the inventors have established that in the operation of such an assay, a stimulation index equal to or greater than 2.0 is a useful measure of induced proliferation. The stimulation index is conventionally derived by division of the proliferation score (e.g. counts per minute of radioactivity if using ^3H-thymidine incorporation) measured to the test peptide by the score measured in cells not contacted with a test peptide.
The interaction between MHC, peptide and T-cell receptor (TCR) provides the structural basis for the antigen specificity of T-cell recognition. T-cell proliferation assays test the binding of peptides to MHC and the recognition of MHC/peptide complexes by the TCR. In vitro T-cell proliferation assays of the present example, involve the stimulation of peripheral blood mononuclear cells (PBMCs), containing antigen presenting cells (APCs) and T-cells. Stimulation is conducted in vitro using synthetic peptide antigens, and in some experiments whole protein antigen. Stimulated T-cell proliferation is measured using ^3H-thymidine (^3H-Thy) and the presence of incorporated ^3H-Thy assessed using scintillation counting of washed fixed cells.
Buffy coats from human blood stored for less than 12 hours were obtained from the National Blood Service (Addenbrooks Hospital, Cambridge, UK). Ficoll-paque was obtained from Amersham Pharmacia Biotech (Amersham, UK). Serum free AIM V media for the culture of primary human lymphocytes and containing L-glutamine, 50 μg/ml streptomycin, 10 μg/ml gentomycin and 0.1% human serum albumin was from Gibco-BRL (Paisley, UK). Synthetic peptides were obtained from Eurosequence (Groningen, The Netherlands) and Babraham Technix (Cambridge, UK).
Erythrocytes and leukocytes were separated from plasma and platelets by gentle centrifugation of buffy coats. The top phase (containing plasma and platelets) was removed and discarded. Erythrocytes and leukocytes were diluted 1:1 in phosphate buffered saline (PBS) before layering onto 15 ml ficoll-paque (Amersham Pharmacia, Amersham UK). Centrifugation was done according to the manufacturers recommended conditions and PBMCs were harvested from the serum+PBS/ficoll paque interface. PBMCs were mixed with PBS (1:1) and collected by centrifugation. The supernatant was removed and discarded and the PBMC pellet resuspended in 50 ml PBS. Cells were again pelleted by centrifugation and the PBS supernatant discarded. Cells were resuspended using 50 ml AIM V media and at this point counted and viability assessed using trypan blue dye exclusion. Cells were again collected by centrifugation and the supernatant discarded. Cells were resuspended for cryogenic storage at a density of 3×10^7 per ml. The storage medium was 90% (v/v) heat inactivated AB human serum (Sigma, Poole, UK) and 10% (v/v) DMSO (Sigma, Poole, UK). Cells were transferred to a regulated freezing container (Sigma) and placed at −70° C. overnight. When required for use, cells were thawed rapidly in a water bath at 37° C. before transferring to 10 ml pre-warmed AIM V medium.
PBMC were stimulated with protein and peptide antigens in a 96 well flat bottom plate at a density of 2×10^5 PBMC per well. […]

Row | Sequence | predicted ranking of the most immunodominant regions | number of donor samples reactive | percent of donor samples reactive
1 | RYTLLHLTNYADETISVAVDV [R1] | most immunogenic | 6 donor samples | over 28%
2 | ATISLENNWSALSKQIQIAST [R5] | most immunogenic | 4 donor samples | 19%
3 | ERLQTAAGKIRENIPLGLPALDSA [R3] |  | 3 donor samples | 14%
4 | ITTLYYYTASSAASALLVLIQSTAESA [R4] |  | 5 donor samples | 24%
5 | ATEAAKFVFKDAKKK [R2] | relatively less immunogenic | 3 donor samples | 14%
